Experimental data from PubChem BioAssay (NCI).
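Compound exposure: 48 hours, 5 concentrations, 96-well plates. GI50: concentration for 50% inhibition of growth. At the TGI there is no net growth.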

Experiments:
Assay in all cases: NCI-60 cell line screen, 48 h
PC-3 prostate = tested on: PC-3 prostate
OVCAR-5 ovarian = tested on: OVCAR-5 ovarian
IGROV1 ovarian = tested on: IGROV1 ovarian
U251 CNS = tested on: U251 CNS
SK-MEL-28 melanoma = tested on: SK-MEL-28 melanoma
HCT-15 colon = tested on: HCT-15 colon
786-0 renal = tested on: 786-0 renal
HOP-92 NSCLC = tested on: HOP-92 NSCLC
CCRF-CEM leukemia = tested on: CCRF-CEM leukemia
HS 578T breast = tested on: HS 578T breast
HCT-116 colon = tested on: HCT-116 colon
K-562 leukemia = tested on: K-562 leukemia
COLO 205 colon = tested on: COLO 205 colon
KM12 colon = tested on: KM12 colon
NCI-H23 lung = tested on: NCI-H23 lung
UO-31 renal = tested on: UO-31 renal
NCI/ADR-RES ovarian = tested on: NCI/ADR-RES ovarian
LOX IMVI melanoma = tested on: LOX IMVI melanoma
HOP-62 NSCLC = tested on: HOP-62 NSCLC
MOLT-4 leukemia = tested on: MOLT-4 leukemia
TK-10 renal = tested on: TK-10 renal
SR leukemia = tested on: SR leukemia
SW-620 colon = tested on: SW-620 colon
CAKI-1 renal = tested on: CAKI-1 renal
RXF 393 renal = tested on: RXF 393 renal
SN12C renal = tested on: SN12C renal
EKVX NSCLC = tested on: EKVX NSCLC
MCF7 breast = tested on: MCF7 breast
NCI-H226 lung = tested on: NCI-H226 lung
M14 melanoma = tested on: M14 melanoma
HT29 colon = tested on: HT29 colon
UACC-257 melanoma = tested on: UACC-257 melanoma
NCI-H460 lung = tested on: NCI-H460 lung
RPMI-8226 leukemia = tested on: RPMI-8226 leukemia
BT-549 breast = tested on: BT-549 breast
A498 renal = tested on: A498 renal
OVCAR-4 ovarian = tested on: OVCAR-4 ovarian
UACC-62 melanoma = tested on: UACC-62 melanoma
HCC-2998 colon = tested on: HCC-2998 colon
MALME-3M melanoma = tested on: MALME-3M melanoma
OVCAR-8 ovarian = tested on: OVCAR-8 ovarian
MDA-MB-231 breast = tested on: MDA-MB-231 breast
SF-539 CNS = tested on: SF-539 CNS
DU-145 prostate = tested on: DU-145 prostate
SNB-19 CNS = tested on: SNB-19 CNS
SNB-75 CNS = tested on: SNB-75 CNS
SK-OV-3 ovarian = tested on: SK-OV-3 ovarian
ACHN renal = tested on: ACHN renal
SK-MEL-5 melanoma = tested on: SK-MEL-5 melanoma
T-47D breast = tested on: T-47D breast
HL-60(TB) leukemia = tested on: HL-60(TB) leukemia
MDA-MB-435 = tested on: MDA-MB-435
SF-295 CNS = tested on: SF-295 CNS
SK-MEL-2 melanoma = tested on: SK-MEL-2 melanoma
A549 NSCLC = tested on: A549 NSCLC
SF-268 CNS = tested on: SF-268 CNS
NCI-H522 lung = tested on: NCI-H522 lung

`Cn1ccnc1C(=O)/C=C/c1ccc(NC(=O)c2ccc(F)cc2)cc1` gave a GI50 (PC-3 prostate) of 5 µM, a TGI (PC-3 prostate) of over 33.3 µM and a GI50 (OVCAR-5 ovarian) of 6.3 µM. For the same molecule, the TGI (OVCAR-5 ovarian) was over 33.3 µM, the GI50 (IGROV1 ovarian) was 3.72 µM and the TGI (IGROV1 ovarian) was over 33.3 µM. It also gave a GI50 (U251 CNS) of 2.92 µM, a TGI (U251 CNS) of over 33.3 µM and a GI50 (SK-MEL-28 melanoma) of 10.1 µM. The TGI (SK-MEL-28 melanoma) was over 33.3 µM, the GI50 (HCT-15 colon) was 1.38 µM and the TGI (HCT-15 colon) was 12.7 µM. For the same molecule, the GI50 (786-0 renal) was 6.82 µM, the TGI (786-0 renal) was over 33.3 µM and the GI50 (HOP-92 NSCLC) was 8.15 µM. For the same molecule, the TGI (HOP-92 NSCLC) was over 33.3 µM, the GI50 (CCRF-CEM leukemia) was 1.46 µM and the TGI (CCRF-CEM leukemia) was over 33.3 µM. The GI50 (HS 578T breast) was 7.06 µM, the TGI (HS 578T breast) was over 33.3 µM and the GI50 (HCT-116 colon) was 1.47 µM. It also gave a TGI (HCT-116 colon) of 12.9 µM, a GI50 (K-562 leukemia) of 1.1 µM and a TGI (K-562 leukemia) of over 33.3 µM. It also gave a GI50 (COLO 205 colon) of 3.39 µM, a TGI (COLO 205 colon) of 17.8 µM and a GI50 (KM12 colon) of 1.22 µM. The TGI (KM12 colon) was 10.9 µM, the GI50 (NCI-H23 lung) was 5.89 µM and the TGI (NCI-H23 lung) was over 33.3 µM. It also gave a GI50 (UO-31 renal) of 3.43 µM, a TGI (UO-31 renal) of over 33.3 µM and a GI50 (NCI/ADR-RES ovarian) of 5.28 µM. The TGI (NCI/ADR-RES ovarian) was over 33.3 µM, the GI50 (LOX IMVI melanoma) was 1.31 µM and the TGI (LOX IMVI melanoma) was 5.55 µM. It also gave a GI50 (HOP-62 NSCLC) of 5.39 µM, a TGI (HOP-62 NSCLC) of 26.8 µM and a GI50 (MOLT-4 leukemia) of 6.36 µM. The TGI (MOLT-4 leukemia) was over 33.3 µM, the GI50 (TK-10 renal) was 10.3 µM and the TGI (TK-10 renal) was over 33.3 µM. It also gave a GI50 (SR leukemia) of 0.903 µM, a TGI (SR leukemia) of over 33.3 µM and a GI50 (SW-620 colon) of 1.39 µM. For the same molecule, the TGI (SW-620 colon) was 8.51 µM, the GI50 (CAKI-1 renal) was 1.63 µM and the TGI (CAKI-1 renal) was over 33.3 µM. For the same molecule, the GI50 (RXF 393 renal) was 3.33 µM, the TGI (RXF 393 renal) was 15.3 µM and the GI50 (SN12C renal) was 6.56 µM. The TGI (SN12C renal) was over 33.3 µM, the GI50 (EKVX NSCLC) was 6.27 µM and the TGI (EKVX NSCLC) was over 33.3 µM. The GI50 (MCF7 breast) was 1.64 µM, the TGI (MCF7 breast) was over 33.3 µM and the GI50 (NCI-H226 lung) was 4.76 µM. For the same molecule, the TGI (NCI-H226 lung) was over 33.3 µM, the GI50 (M14 melanoma) was 8.52 µM and the TGI (M14 melanoma) was over 33.3 µM. The GI50 (HT29 colon) was 2.22 µM, the TGI (HT29 colon) was over 33.3 µM and the GI50 (UACC-257 melanoma) was 17.9 µM. It also gave a TGI (UACC-257 melanoma) of over 33.3 µM, a GI50 (NCI-H460 lung) of 1.79 µM and a TGI (NCI-H460 lung) of 7.85 µM. For the same molecule, the GI50 (RPMI-8226 leukemia) was 1.15 µM, the TGI (RPMI-8226 leukemia) was 12.3 µM and the GI50 (BT-549 breast) was 1.53 µM. For the same molecule, the TGI (BT-549 breast) was 24.7 µM, the GI50 (A498 renal) was 5.68 µM and the TGI (A498 renal) was 17.1 µM. The GI50 (OVCAR-4 ovarian) was 6.37 µM, the TGI (OVCAR-4 ovarian) was over 33.3 µM and the GI50 (UACC-62 melanoma) was 9.5 µM. It also gave a TGI (UACC-62 melanoma) of over 33.3 µM, a GI50 (HCC-2998 colon) of 6.99 µM and a TGI (HCC-2998 colon) of over 33.3 µM. For the same molecule, the GI50 (MALME-3M melanoma) was 18.1 µM, the TGI (MALME-3M melanoma) was over 33.3 µM and the GI50 (OVCAR-8 ovarian) was 5.88 µM. It also gave a TGI (OVCAR-8 ovarian) of over 33.3 µM, a GI50 (MDA-MB-231 breast) of 6.54 µM and a TGI (MDA-MB-231 breast) of over 33.3 µM. For the same molecule, the GI50 (SF-539 CNS) was 2.5 µM, the TGI (SF-539 CNS) was 10.5 µM and the GI50 (DU-145 prostate) was 1.33 µM. It also gave a TGI (DU-145 prostate) of over 33.3 µM, a GI50 (SNB-19 CNS) of 4.96 µM and a TGI (SNB-19 CNS) of over 33.3 µM. The GI50 (SNB-75 CNS) was 1.23 µM, the TGI (SNB-75 CNS) was 28.7 µM and the GI50 (SK-OV-3 ovarian) was 8.29 µM. For the same molecule, the TGI (SK-OV-3 ovarian) was over 33.3 µM, the GI50 (ACHN renal) was 4.85 µM and the TGI (ACHN renal) was 11.8 µM. It also gave a GI50 (SK-MEL-5 melanoma) of 17.6 µM, a TGI (SK-MEL-5 melanoma) of over 33.3 µM and a GI50 (T-47D breast) of 2.02 µM. It also gave a TGI (T-47D breast) of over 33.3 µM, a GI50 (HL-60(TB) leukemia) of 2.9 µM and a TGI (HL-60(TB) leukemia) of 31.8 µM. It also gave a GI50 (MDA-MB-435) of 3.84 µM, a TGI (MDA-MB-435) of over 33.3 µM and a GI50 (SF-295 CNS) of 8.15 µM. It also gave a TGI (SF-295 CNS) of over 33.3 µM, a GI50 (SK-MEL-2 melanoma) of 7.96 µM and a TGI (SK-MEL-2 melanoma) of over 33.3 µM. The GI50 (A549 NSCLC) was 6.75 µM, the TGI (A549 NSCLC) was over 33.3 µM and the GI50 (SF-268 CNS) was 4.94 µM. The TGI (SF-268 CNS) was over 33.3 µM, the GI50 (NCI-H522 lung) was 5.52 µM and the TGI (NCI-H522 lung) was 14.2 µM.
